Target: T1, human chemokine receptor 2 isoform B (CCR2) (Homo sapiens, UniProt P41597)
T1 sequence (P41597 1-360 isoform P41597-2): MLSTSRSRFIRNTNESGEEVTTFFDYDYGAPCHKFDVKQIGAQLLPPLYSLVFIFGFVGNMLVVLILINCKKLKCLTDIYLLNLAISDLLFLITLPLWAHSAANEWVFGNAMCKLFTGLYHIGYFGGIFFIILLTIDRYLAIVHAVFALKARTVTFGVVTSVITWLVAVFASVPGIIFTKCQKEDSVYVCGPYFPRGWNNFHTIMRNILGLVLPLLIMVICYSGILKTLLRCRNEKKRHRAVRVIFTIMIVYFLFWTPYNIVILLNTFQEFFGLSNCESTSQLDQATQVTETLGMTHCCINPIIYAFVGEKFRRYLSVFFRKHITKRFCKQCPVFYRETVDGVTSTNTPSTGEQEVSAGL
Experiment: Calcium mobilization assay (FLIPR, MCP-1 stimulated CHOK1-CCR2B-A5 cells)
Assay type: cell-based
Conditions: Ca mobilisation assay, CCR2 antagonist activity, inhibition of MCP-1 induced calcium increase
Method: Calcium Mobilization Assay
CHOK1-CCR2B-A5 cells (from Euroscreen) stably overexpressing the human chemokine receptor 2 isoform B were cultured in Nutrient Hams F12 medium supplemented with 5% FBS, 100 U/ml penicillin, 100 μg/ml streptomycin, 400 μg/ml G418 and 5 μg/ml puromycin.
For the assay cells were grown overnight in 384-well black clear flat bottom polystyrene plates (Costar) at 37° C. at 5% CO2. After washing with DMEM, 20 mM Hepes, 2.5 mM probenecid, 0.1% BSA (DMEM assay buffer) cells were loaded with 4 μM Fluo-4 in the same DMEM assay buffer for 2 hours at 30° C. Excess dye was removed and cells were washed with DMEM assay buffer. 384-well compound plates were prepared with DMEM assay buffer/0.5% DMSO with or without various concentrations of test compounds. Usually compounds were tested for agonist and antagonist activity.
Test compounds were added to the assay plate and agonist activity was monitored as fluorescence for 80 seconds with a FLIPR (488 nm excitation; 510-570 nm emission; Molecular Devices). After 20-30 min. of incubation at 30° C., […] MCP-1 (R&D; Roche) was added and fluorescence was monitored again for 80 seconds. Increases in intracellular calcium are reported as maximum fluorescence after agonist exposure minus basal fluorescence before exposure. Antagonist activity is indicated as inhibitor concentration required for 50% inhibition of specific calcium increases.

| Compound | IC50 [nM] |
| --- | --- |
| Cc1ccc(NC(=O)N2CCC(=O)N(CCCN3CCC4(CC4)[C@H](O)C3)C[C@H]2C)cc1C [Example 61, (R)-4-[3-((S)-4-Hydroxy-6-aza-spiro[2.5]oct-6-yl)-propyl]-2-methyl-5-oxo-[1,4]diazepane-1-carboxylic acid (3,4-dimethyl-phenyl)-amide] | 210 |
| C[C@H]1C(=O)N(CCCCN2CCC3(CC3)[C@H](O)C2)CCN1C(=S)Oc1ccc2ccccc2c1 [Example 92, (S)-4-[4-((S)-4-Hydroxy-6-aza-spiro[2.5]oct-6-yl)-butyl]-2-methyl-3-oxo-piperazine-1-carbothioic acid O-naphthalen-2-yl ester] | 624 |
| CC1CN(C(CO)CCN2CCC3(CC3)[C@H](O)C2)C(=O)CCN1C(=O)Nc1cccc(Cl)c1 (stereo in doubt) [Example 63, (R)-4-[(S)-3-((S)-4-Hydroxy-6-aza-spiro[2.5]oct-6-yl)-1-hydroxymethyl-propyl]-2-methyl-5-oxo-[1,4]diazepane-1-carboxylic acid (3-chloro-phenyl)-amide] | 5.1 |
| COCC(CCN1CCC2(CC2)[C@H](O)C1)N1CC(C)N(C(=O)Nc2cccc(C(F)(F)F)c2)CCC1=O (stereo in doubt) [Example 66, (R)-4-[(S)-3-((S)-4-Hydroxy-6-aza-spiro[2.5]oct-6-yl)-1-methoxymethyl-propyl]-2-methyl-5-oxo-[1,4]diazepane-1-carboxylic acid (3-trifluoromethyl-phenyl)-amide] | 33 |
| O=C(Nc1ccc(Cl)c(Cl)c1)N1CCC(=O)N([C@H](CO)CCN2CCC3(CC3)[C@H](O)C2)CC1 [Example 53, 4-[(S)-3-((S)-4-Hydroxy-6-aza-spiro[2.5]oct-6-yl)-1-hydroxymethyl-propyl]-5-oxo-[1,4]diazepane-1-carboxylic acid (3,4-dichloro-phenyl)-amide] | 1 |
| COCC(CCN1CCC2(CC2)[C@H](O)C1)N1CCN(C(=O)Oc2ccc(Cl)c(Cl)c2)CCC1=O (stereo partly drawn) [Example 7, (R,S)-4-[3-((S)-4-Hydroxy-6-aza-spiro[2.5]oct-6-yl)-1-methoxymethyl-propyl]-5-oxo-[1,4]diazepane-1-carboxylic acid 3,4-dichloro-phenyl ester] | 370 |
| C[C@H]1C(=O)N(CCCN2CCC3(CC3)[C@H](O)C2)CCN1C(=O)Nc1cccc(Cl)c1 [Example 69, (S)-4-[3-((S)-4-Hydroxy-6-aza-spiro[2.5]oct-6-yl)-propyl]-2-methyl-3-oxo-piperazine-1-carboxylic acid (3-chloro-phenyl)-amide] | 5 |
| COCC(CCN1CCC2(CC2)[C@H](O)C1)N1CC(C)N(C(=O)Nc2ccc(Cl)c(Cl)c2)CCC1=O (stereo in doubt) [Example 68, (R)-4-[(S)-3-((S)-4-Hydroxy-6-aza-spiro[2.5]oct-6-yl)-1-methoxymethyl-propyl]-2-methyl-5-oxo-[1,4]diazepane-1-carboxylic acid (3,4-dichloro-phenyl)-amide] | 3 |
| C[C@@H]1CN(CCCN2CCCCC2)C(=O)CCN1C(=S)Nc1ccc(Cl)c(Cl)c1 [Example 26, (R)-2-Methyl-5-oxo-4-(3-piperidin-1-yl-propyl)-[1,4]diazepane-1-carbothioic acid (3,4-dichloro-phenyl)-amide] | 580 |
| C[C@H]1C(=O)N(CCCN2CCC3(CC3)[C@H](O)C2)CCN1C(=O)Nc1ccc(-c2ccccc2)cc1 [Example 76, (S)-4-[3-((S)-4-Hydroxy-6-aza-spiro[2.5]oct-6-yl)-propyl]-2-methyl-3-oxo-piperazine-1-carboxylic acid biphenyl-4-ylamide] | 3 |
| C[C@H]1C(=O)N(CCCN2CCC[C@@H](O)C2)CCN1C(=O)Nc1ccc(Cl)c(Cl)c1 [Example 48, (S)-4-[3-((R)-3-Hydroxy-piperidin-1-yl)-propyl]-2-methyl-3-oxo-piperazine-1-carboxylic acid (3,4-dichloro-phenyl)-amide] | 370 |
| C[C@H]1C(=O)N(CCCN2CCC(O)CC2)CCN1C(=O)Nc1ccc(Cl)c(Cl)c1 [Example 49, (S)-4-[3-(4-Hydroxy-piperidin-1-yl)-propyl]-2-methyl-3-oxo-piperazine-1-carboxylic acid (3,4-dichloro-phenyl)-amide] | 160 |
| COC[C@H](CCN1CCC2(CC2)[C@H](O)C1)N1CCN(C(=O)Nc2cccc(Cl)c2)[C@H](C)C1=O [Example 85, (R)-4-[(S)-3-((S)-4-Hydroxy-6-aza-spiro[2.5]oct-6-yl)-1-methoxymethyl-propyl]-2-methyl-3-oxo-piperazine-1-carboxylic acid (3-chloro-phenyl)-amide] | 180 |
| O=C(Oc1ccc(Cl)c(Cl)c1)N1CCC(=O)N(C(CO)CCN2CCC3(CC3)[C@H](O)C2)CC1 (stereo partly drawn) [Example 9, (R,S)-4-[3-((S)-4-Hydroxy-6-aza-spiro[2.5]oct-6-yl)-1-hydroxymethyl-propyl]-5-oxo-[1,4]diazepane-1-carboxylic acid 3,4-dichloro-phenyl ester] | 420 |
| C[C@H]1C(=O)N(CCCN2CCC3(CC3)[C@H](O)C2)CCN1C(=O)Nc1cccc(-c2ccccc2)c1 [Example 78, (S)-4-[3-((S)-4-Hydroxy-6-aza-spiro[2.5]oct-6-yl)-propyl]-2-methyl-3-oxo-piperazine-1-carboxylic acid biphenyl-3-ylamide] | 2 |
| COC[C@H](CCN1CCC2(CC2)[C@H](O)C1)N1CCN(C(=O)Nc2cccc(Cl)c2)[C@@H](C)C1=O [Example 82, (S)-4-[(S)-3-((S)-4-Hydroxy-6-aza-spiro[2.5]oct-6-yl)-1-methoxymethyl-propyl]-2-methyl-3-oxo-piperazine-1-carboxylic acid (3-chloro-phenyl)-amide] | 4 |
| CC(C)OC(=O)OC[C@H](CCN1CCC2(CC2)[C@H](O)C1)N1CCN(C(=O)Nc2ccc(Cl)c(Cl)c2)[C@@H](C)C1=O [Example 113, Carbonic acid (S)-2-[(S)-4-(3,4-dichloro-phenylcarbamoyl)-3-methyl-2-oxo-piperazin-1-yl]-4-((S)-4-hydroxy-6-aza-spiro[2.5]oct-6-yl)-butyl ester isopropyl ester] | 1 |

Continued, values first:

| IC50 [nM] | Compound |
| --- | --- |
| 64 | C[C@H]1C(=O)N(CCCN2CCC3(CC3)[C@H](O)C2)CCN1C(=O)Nc1ccccc1 [Example 74, (S)-4-[3-((S)-4-Hydroxy-6-aza-spiro[2.5]oct-6-yl)-propyl]-2-methyl-3-oxo-piperazine-1-carboxylic acid phenylamide] |
| 248 | C[C@H]1C(=O)N(C[C@H](O)CN2CCC3(CC3)[C@H](O)C2)CCN1C(=O)Nc1cccc(Cl)c1 [Example 123, (S)-4-[(R)-2-Hydroxy-3-((S)-4-hydroxy-6-aza-spiro[2.5]oct-6-yl)-propyl]-2-methyl-3-oxo-piperazine-1-carboxylic acid (3-chloro-phenyl)-amide] |
| 382 | C[C@H]1C(=O)N(CCN2CCC3(CC3)[C@H](O)C2)CCN1C(=O)Nc1ccc(Cl)c(Cl)c1 [Example 104, (S)-4-[2-((S)-4-Hydroxy-6-aza-spiro[2.5]oct-6-yl)-ethyl]-2-methyl-3-oxo-piperazine-1-carboxylic acid (3,4-dichloro-phenyl)-amide] |
| 960 | O=C1CCN(C(=O)Nc2ccc(Cl)c(Cl)c2)[C@H](c2ccccc2)CN1CCCN1CCCCC1 [Example 30, (R)-5-Oxo-2-phenyl-4-(3-piperidin-1-yl-propyl)-[1,4]diazepane-1-carboxylic acid (3,4-dichloro-phenyl)-amide] |
| 780 | CN(C)C(=O)C(CCN1CCC2(CC2)[C@H](O)C1)N1CCN(C(=O)Nc2cccc(Cl)c2)CCC1=O (stereo partly drawn) [Example 10, (R,S)-4-[1-Dimethylcarbamoyl-3-((S)-4-hydroxy-6-aza-spiro[2.5]oct-6-yl)-propyl]-5-oxo-[1,4]diazepane-1-carboxylic acid (3-chloro-phenyl)-amide] |
| 120 | C[C@H]1C(=O)N(CCCN2CCC[C@H]2CO)CCN1C(=O)Nc1ccc(Cl)c(Cl)c1 [Example 50, (S)-4-[3-((S)-2-Hydroxymethyl-pyrrolidin-1-yl)-propyl]-2-methyl-3-oxo-piperazine-1-carboxylic acid (3,4-dichloro-phenyl)-amide] |
| 2 | COC(=O)OC[C@H](CCN1CCC2(CC2)[C@H](O)C1)N1CCN(C(=O)Nc2ccc(Cl)c(Cl)c2)[C@@H](C)C1=O [Example 112, Carbonic acid (S)-2-[(S)-4-(3,4-dichloro-phenylcarbamoyl)-3-methyl-2-oxo-piperazin-1-yl]-4-((S)-4-hydroxy-6-aza-spiro[2.5]oct-6-yl)-butyl ester methyl ester] |
| 840 | COCC(CCN1CCC2(CC2)[C@H](O)C1)N1CCN(C(=O)NCc2ccc(Cl)c(Cl)c2)CCC1=O (stereo partly drawn) [Example 6, (R,S)-4-[3-((S)-4-Hydroxy-6-aza-spiro[2.5]oct-6-yl)-1-methoxymethyl-propyl]-5-oxo-[1,4]diazepane-1-carboxylic acid 3,4-dichloro-benzylamide] |
